Tests used:
HLA-DR4Dw4 = target: T1, HLA-DR4Dw4 (Homo sapiens, UniProt P01903+P01911, A100K/A169T/F76Y/I96L/K127E/L162R/M171V/N62H/P40V/Q125Y/R42H/S133A/S149N/S66Y/V115G/V209L/W38E); test: Test A: purified HLA-DR peptide in vitro binding assay; conditions: compared with the other isolated diastereomer
T1 construct: a cDNA encoding the β chain is cloned into the transfer vector pAcUW1; made in house; host or cells: Sf21 insect cells, double-recombinant baculovirus
Method: Test A: Purified HLA-DR peptide in vitro binding assay. […]. At the end of the incubation period 100 μl of the incubate is transferred to Enzyme Linked lmmunoSorbant Assay (ELISA) plates (Nunc) previously coated with an anti-MHC antibody (L243--American Type Culture Collection (ATCC) HB55 --as described in Lampson and Levy (1980) J. Immunol. 125, 293-299) at a concentration of 10 μg/ml for 1 hour at room temperature and blocked thereafter for 1 hour with 1% bovine serum albumin (BSA) in PBS and 0.05% Tween 20. After a further 1 hour period the unbound peptide is washed away and a 1/4,000 dilution of streptavidin peroxidase (Sigma) in PBS with 0.01% of a suitable detergent such as NP40 (Sigma) added for 2 hours at room temperature. After further washing, tetramethylbenzidene (TMB) substrate solution (1 TMB tablet (Sigma) in 10 mIs of 0.1 M citrate/acetate buffer, pH 6.0 with 36 μl urea hydrogen peroxide (UHPO) (Fluka)) is added to each of the plates. The reaction is stopped by adding 2M sulphuric acid (10 μl per well) and the absorbance read at 450 nm to quantify the amount of peptide bound. The inhibitory activity of peptides is obtained by plotting absorbance against concentration.
The purified HLA-DR4Dw4 may be obtained as follows:
(i) Expression of HLA-DR in the Baculovirus System
The expression of recombinant proteins in insect cells from baculovirus vectors is an established procedure to obtain high yields of recombinant protein [Luckow, V A & Summers, M D, 1988, Biotechnology, 6, 47-551]. To enable the expression of the heterodimeric HLA-DR, eg. HLA-DR4Dw4, from a single recombinant baculovirus vector (as opposed to having separate recombinant viruses for the α and β chains and then doing a co-infection), a double-recombinant baculovirus is constructed which carries both the α and β chains.
A cDNA encoding the sequence of the α polypeptide is cloned into the transfer vector pacYM1 [Matsuura, Y; Possee, R D; Overton, H A & Bishop, D H L, 1987, J. Gen. […] The molecular genetic techniques used to construct the recombinant vectors are likewise readily available in the literature and are most fully described by Sambrook, J; Fritsch, E F & Maniatis T, (1989) [Molecular Cloning. […]
To create the double-recombinant baculovirus, a cDNA encoding the β chain is cloned into the transfer vector pAcUW1 [Weyer, U; Knight, S & Possee, R D, 1990, J. Gen. […] Double-recombinant viruses are detected by spotting insect cells, infected with randomly picked viruses from the transfection, onto membranes and reacting them with a monoclonal antibody, e.g. L243, which specifically recognises the HLA-DR heterodimer. Binding of the antibody to Sf21 insect cells is detected using standard flow cytometry techniques, readily available in the literature. […]

[1] = system: B52.24 murine T cell hybridoma line; test: Test B: inhibition of T cell activation in vitro; type: cell-based; conditions: compared with the other isolated diastereomer
Text: Test B: Inhibition of T cell activation in vitro.
. B52.24 was produced by the fusion of lymph node T cells taken from FHA307-320 immunised HLA-DR4Dw4 transgenic mice (International Patent Application, Publication No WO95/03331) with the BW5147 murine T cell lymphoma line (White et al (1989) J. Immunol. 143, 1822) as outlined in Woods et al (1994) J. Exp. Med. 180, 173-181 and following the general methods for the generation of T cell hybridomas given in Current Protocols in Immunology, Volume 2, 7.21.
Inhibitor peptides at concentrations between 100 and 0.1 μM (or lower) were mixed with the antigenic peptide FHA307-320 in either varying concentrations between 100 and 0.1 μM or at a fixed concentration of 10 μM by dilution in RPM1-1640 culture media (Gibco) in a 96-well mictrotitre plate (Nunc) in a final volume of 100 μl. […]
The culture plates containing supernatants to be assayed were left at room temperature to thaw and […] of supernatant was transferred to fresh 96 round bottomed well plates. […] The contents of each plate were harvested onto glass fibre filter mats and the radioactivity measured using a betaplate scintillation counter.

Phv-Ala-Ala-Ala-Lys-Val-III-Ala-Pip-NH2 [more polar diastereomer]
relative potency of diastereomers in Test A (HLA-DR4Dw4): more potent than the less polar diastereomer | relative potency of diastereomers in Test B [1]: more potent than the less polar diastereomer

Reference: patent US6087336A, “Peptide derivatives useful in treating autoimmune diseases” (Zeneca Limited, priority 1996, dated 2000)
